Test results: PMC8383802 (ACS chemical neuroscience, 2020)

Columns and labels:
[1] = tested on: methamphetamine (Meth)-induced hyper-locomotor activity; details: cited from earlier work
alcohol intake = details: cited from earlier work; for alcohol intake: mice, without altering total fluid intake, alcohol-induced sedation or alcohol metabolism
[2] = tested on: cocaine self-administered mice; assay: Cocaine self-administration in mice
PDE4D = PDE4D (Homo sapiens, UniProt Q08499); assay: IC50 determination on PDE4 isoforms in vitro; type: binding; details: read-out: IC50 on PDE4D
PDE4D, sequence (Q08499 whole entry, canonical isoform): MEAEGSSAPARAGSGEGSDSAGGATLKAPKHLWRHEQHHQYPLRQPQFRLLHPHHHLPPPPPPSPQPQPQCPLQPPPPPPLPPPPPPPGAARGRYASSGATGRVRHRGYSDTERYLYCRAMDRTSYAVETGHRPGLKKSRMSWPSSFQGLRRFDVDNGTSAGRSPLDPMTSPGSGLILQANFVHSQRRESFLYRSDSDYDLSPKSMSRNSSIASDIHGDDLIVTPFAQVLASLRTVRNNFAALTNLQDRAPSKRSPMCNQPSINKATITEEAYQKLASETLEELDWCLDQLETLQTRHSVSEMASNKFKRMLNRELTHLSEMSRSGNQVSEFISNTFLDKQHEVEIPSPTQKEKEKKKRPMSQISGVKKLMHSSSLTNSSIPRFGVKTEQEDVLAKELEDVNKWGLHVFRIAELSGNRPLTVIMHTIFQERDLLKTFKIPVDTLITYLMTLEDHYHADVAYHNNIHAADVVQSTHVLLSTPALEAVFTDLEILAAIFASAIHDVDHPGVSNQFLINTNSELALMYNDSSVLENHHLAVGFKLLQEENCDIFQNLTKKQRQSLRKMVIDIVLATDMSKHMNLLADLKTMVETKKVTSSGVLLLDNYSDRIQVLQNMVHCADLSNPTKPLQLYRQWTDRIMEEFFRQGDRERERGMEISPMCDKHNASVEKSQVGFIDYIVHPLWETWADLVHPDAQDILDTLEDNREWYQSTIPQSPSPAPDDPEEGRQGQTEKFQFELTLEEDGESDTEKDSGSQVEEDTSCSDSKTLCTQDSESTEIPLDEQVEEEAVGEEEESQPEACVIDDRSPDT

[3] = Brain and blood concentration of KVA-D-88 in mice; type: in vivo
WT C57/BL6 mice = type: in vivo
[4] = Pharmacokinetic study of KVA-D-88 in mice; type: in vivo
PDE4B = PDE4B (Homo sapiens, UniProt Q07343); assay: IC50 determination on PDE4 isoforms in vitro; type: binding; details: read-out: IC50 on PDE4B
PDE4B, sequence (Q07343 whole entry, canonical isoform): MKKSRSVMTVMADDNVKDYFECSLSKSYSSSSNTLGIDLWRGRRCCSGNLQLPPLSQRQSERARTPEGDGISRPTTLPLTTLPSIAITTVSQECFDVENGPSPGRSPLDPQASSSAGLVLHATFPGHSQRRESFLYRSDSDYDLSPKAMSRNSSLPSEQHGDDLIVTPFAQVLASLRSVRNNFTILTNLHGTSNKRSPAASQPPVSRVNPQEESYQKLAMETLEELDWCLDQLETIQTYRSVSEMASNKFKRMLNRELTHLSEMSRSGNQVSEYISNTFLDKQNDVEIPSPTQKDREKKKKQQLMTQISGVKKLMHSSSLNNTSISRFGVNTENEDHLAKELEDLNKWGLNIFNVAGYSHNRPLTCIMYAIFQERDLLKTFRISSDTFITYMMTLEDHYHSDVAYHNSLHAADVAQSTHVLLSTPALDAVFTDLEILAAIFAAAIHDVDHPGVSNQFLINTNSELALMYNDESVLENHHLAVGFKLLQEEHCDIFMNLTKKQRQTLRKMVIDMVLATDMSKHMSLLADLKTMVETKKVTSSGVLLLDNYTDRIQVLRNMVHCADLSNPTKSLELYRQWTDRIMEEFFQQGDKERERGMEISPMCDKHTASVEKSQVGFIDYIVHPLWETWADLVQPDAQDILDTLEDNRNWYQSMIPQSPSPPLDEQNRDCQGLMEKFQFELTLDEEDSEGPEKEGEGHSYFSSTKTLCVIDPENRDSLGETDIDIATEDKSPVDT

[5] = tested on: Meth self-administered rats; details: cited from earlier work
[6] = tested on: heroin self-administration; details: cited from earlier work
cocaine reward = details: cited from earlier work
[7] = tested on: morphine-induced hyper-locomotor activity; details: cited from earlier work
[8] = tested on: alcohol self-administration; details: cited from earlier work
[9] = FR1 schedule, 2 h, 5 and 2.5 mg/kg i.p. 30 min before, P < 0.05
[10] = FR3 schedule, 2 h session, 5 mg/kg, P < 0.05

CC(N)C(=O)c1c(C(C)C)nn2ccccc12 (stereo not shown) [AV1013]
Meth-induced hyper-locomotor activity and sensitization [1]: reduced

CCOc1cc([C@@H](CS(C)(=O)=O)N2C(=O)c3cccc(NC(C)=O)c3C2=O)ccc1OC [apremilast, reference compound]
reward-related behavior induced by alcohol (alcohol intake): decreasing the reward-related behavior induced by alcohol | effect on numbers of cocaine self-intake ([2]; dose 5 mg/kg): did not decrease | effect on numbers of cocaine self-intake ([2]; dose 20 mg/kg): significant its inhibitory effects

CCCCOc1cc(CC2CNC(=O)N2)ccc1OC (stereo not shown) [Ro 20-1724]
alcohol intake (alcohol intake): reduced alcohol intake

O=C(c1cc2cccnc2n1-c1ccc(Cl)c(Cl)c1)N1CC(F)(F)C1 [KVA-D-88]
IC50 (PDE4D): 880 nM | average concentration in the blood ([3]; i.p. 10 mg/kg, 30 min later): 3899.2 ng/mL | concentration ratio of brain: blood (Kp) ([3]; i.p. 10 mg/kg, 30 min later): approximately 0.6 | average concentration in the brain ([3]; i.p. 10 mg/kg, 30 min later, whole brain homogenates): 2347.7 ng/g | concentration ratio (brain vs. plasma) ([3]; i.v. dosing as printed in the discussion): 0.6 | concentration ratio (brain vs. plasma) ([3]; p.o. dosing (10 mg/kg)): 1.2 | effect on cocaine-mediated hyper-locomotion (WT C57/BL6 mice; female mice, both testing doses (5 or 10 mg/kg i.p.), P < 0.05): significantly blocked cocaine-mediated hyper-locomotion | effect on locomotor activity at basal levels (WT C57/BL6 mice; mice, KVA-D-88 without cocaine): minimal effects | effect on cocaine-mediated locomotor sensitization (WT C57/BL6 mice; mice, daily pre-administration before cocaine for 7 consecutive days): strikingly blocked cocaine-mediated locomotor sensitization | half-life (t1/2) ([4]; i.v. injection 1 mg/kg): 6.1 h | mean residence time (MRT) ([4]; i.v. injection 1 mg/kg): 5.7 h | AUC from time zero to infinity (AUC∞) ([4]; i.v. injection 1 mg/kg, plasma): 1387.9 ng/mL | AUC from time zero to the last measurable concentration (AUClast) ([4]; i.v. injection 1 mg/kg, plasma): 1382.9 ng/mL | maximum plasma concentration (Cmax) ([4]; i.v. injection 1 mg/kg, plasma): 898.2 ng/mL | AUC∞ ([4]; oral gavage 10 mg/kg): 10825.9 ng/mL | Cmax in the blood ([4]; oral gavage 10 mg/kg): 2150.5 ng/mL | half-life (t1/2) ([4]; oral gavage 10 mg/kg): 7.16 h | mean residence time (MRT) ([4]; oral gavage 10 mg/kg): 9 h | time to reach maximum concentration in the blood (Tmax) ([4]; oral gavage 10 mg/kg): 0.25 h | half-life ([4]; through either i.v. injection or p.o. approach): 6 to 7 h | rate of cocaine self-administration ([2]; FR1 schedule, 5.0 mg/kg, P < 0.05): strikingly reduced | number of active nose-pokes [2, 9]: significantly decreased | number of cocaine infusions [2, 9]: significantly decreased | numbers of active nose-poke [2, 10]: significantly decreased | numbers of cocaine infusions [2, 10]: significantly decreased | break point ([2]; PR schedule, 3 h session, 5 mg/kg, P < 0.05): significantly decreased the numbers of break point | fold stronger than apremilast on cocaine inhibition ([2]; cocaine self-intake, comparison of effective doses): ~10 fold | effect on cocaine self-intake (active nose poke), dose-response ([2]; dose 0.5 mg/kg): no inhibitory effect | effect on cocaine self-intake (active nose poke), dose-response ([2]; dose 1.0 mg/kg): no inhibitory effect | effect on cocaine self-intake (active nose poke), dose-response ([2]; dose 2 mg/kg): showed the inhibitory effects but did not reached the significance | effect on cocaine self-intake (active nose poke), dose-response ([2]; dose 4 mg/kg, P < 0.05): significant effects | IC50 (PDE4B): 140 nM

CC(C)C(=O)c1c(C(C)C)nn2ccccc12 [ibudilast]
Meth-induced hyper-locomotor activity and sensitization [1]: reduced | drug seeking and intake behaviors ([5]; Meth self-administered rats): decreased drug seeking and intake behaviors | Meth-mediated seeking and consumption behaviors [5]: effective in attenuating

COc1ccc(C2CNC(=O)C2)cc1OC1CCCC1 (stereo not shown) [rolipram]
alcohol intake (alcohol intake): reduced alcohol intake | heroin self-administration ([6]; fixed ratio 1 (FR1)): did not significantly inhibit | rewarding effects of heroin ([6]; progressive ratio (PR) paradigm): decreased the rewarding effects | cocaine-induced locomotor sensitization and conditional place preference (cocaine reward; mice): attenuated | cocaine reward, incentive saliency and seeking behavior (cocaine reward; open field test, CPP and self-administration): reduce cocaine reward, incentive saliency and seeking behavior | Meth-mediated seeking and consumption behaviors [5]: effective in attenuating | morphine-induced hyper-locomotor activity and CPP [7]: reduced | 2-bottle choice alcohol consumption and preference [8]: decreased | alcohol self-administration [8]: dose-dependently reduced
